Laboratory results reported in US9980943B2, “Methods of treating muscular dystrophy” (BOARD OF REGENTS OF THE NEVADA SYSTEM OF HIGHER EDUCATION, …, priority 2013, dated 2018).

How the values were obtained:
Type in all cases: cell-based, mouse
[1] = tested on: α7 integrin (LacZ reporter in α7+/LacZ myotubes); experiment: Myotube α7 integrin FDG assay (Burkin assay in myotubes, 96-well); conditions: for dose-response curve in myotubes: hits of Prestwick/Microsource screens
[2] = tested on: α7 integrin (LacZ reporter in α7βgal+/− myoblasts); experiment: Myoblast α7+/LacZ integrin FDG assay (Burkin assay in myoblasts, 96-well); conditions: for Burkin Assay in Myoblasts, signal relative to DMSO / Burkin Assay in Myoblasts, value relative to DMSO: α7+/LacZ myoblasts, 96-well
[3] = tested on: β-galactosidase in CMV-LacZ C2C12 myotubes; experiment: CMV-LacZ secondary screen in C2C12 myotubes (β-Gal stabilizing assay); conditions: C2C12 CMV-LacZ myotubes, fold relative to DMSO
Excerpt: In order to determine compounds that acted to stabilize β-gal in myogenic cells, a CMV-LacZ C2C12 cell line was used in a secondary screen. The EGFP gene from the pEGFP (Clontech) vector was replaced by LACZ PCR product with digests of the vector/PCR product performed using EcoRI (NEB) and NotI (NEB) and ligated using T4 DNA Ligase (NEB) following standard procedures to produce the CMV-LACZ vector. The LACZ gene was generated by PCR from the pBK-RSV (Stratagene) vector using primers LACZ EcoRI F- and LACZ NotI R-. The CMV-LACZ vector was then digested with AfIII (NEB) to linearize the construct, which was then transfected in C2C12 myoblasts using Lipofectamine 2000 (Invitrogen) following the manufacturer's instructions. […] Clonal lines were selected and screened for βgal levels using the myoblast FDG assay.
The assays were used the original 96-well format and new dose-response curves for myoblasts (N=3-6 replicates for each data point), myotubes (N=3-6 replicates for data point), and CMV-LacZ secondary assay (N=2 replicates for each data point) using concentrations of 0.5 μM, 1 μM, 5 μM, 10 μM, 20 μM, and 40 μM (Tables 9-16).

[4] = Mus musculus, Myoblast, 48 h, read-out: Burkin Assay in Myoblasts, signal relative to DMSO
[5] = Mus musculus, Myotube, read-out: Burkin Assay in Myotubes, α7 integrin LacZ reporter signal relative to DMSO

SMILES | CMV-LACZ in Myotubes, signal relative to DMSO ([3]; 5 uM) | CMV-LACZ in Myotubes, signal relative to DMSO ([3]; 10 uM) | CMV-LACZ in Myotubes, signal relative to DMSO ([3]; 20 uM) | CMV-LACZ in Myotubes, signal relative to DMSO ([3]; 40 uM) | Burkin Assay in Myoblasts, value relative to DMSO ([2]; 0.5 uM) | Burkin Assay in Myoblasts, value relative to DMSO ([2]; 1 uM) | Burkin Assay in Myoblasts, value relative to DMSO ([2]; 5 uM) | Burkin Assay in Myoblasts, value relative to DMSO ([2]; 10 uM) | Burkin Assay in Myoblasts, value relative to DMSO ([2]; 20 uM) | Burkin Assay in Myoblasts, value relative to DMSO ([2]; 40 uM) | Burkin Assay in Myotubes (signal relative to DMSO) ([1]; 0.5 uM) | Burkin Assay in Myotubes (signal relative to DMSO) ([1]; 1 uM) | Burkin Assay in Myotubes (signal relative to DMSO) ([1]; 5 uM) | Burkin Assay in Myotubes (signal relative to DMSO) ([1]; 10 uM) | Burkin Assay in Myotubes (signal relative to DMSO) ([1]; 20 uM) | Burkin Assay in Myotubes (signal relative to DMSO) ([1]; 40 uM) | other results
c1ccc(-c2ccccn2)nc1 [2,2-Dipyridyl, reference compound] |  |  |  |  |  |  |  |  |  |  |  |  |  |  |  |  | dose-response curve in myotubes [1]: positive dose-response curves
CC(C)CCC[C@@H](C)[C@H]1CC[C@H]2[C@@H]3CC(=O)[C@H]4C[C@@H](O)CC[C@]4(C)[C@H]3CC[C@]12C [5alpha-cholestan-3β-ol-6-one, reference compound] |  |  |  |  |  |  |  |  |  |  |  |  |  |  |  |  | dose-response curve in myotubes [1]: positive dose-response curve
Cc1cc(C2CCCCC2)n(O)c(=O)c1 [Ciclopirox ethanolamine, reference compound] |  |  |  |  |  |  |  |  |  |  |  |  |  |  |  |  | dose-response curve in myotubes [1]: positive dose-response curves
CCc1nnc(NC(=O)c2ccc(S(=O)(=O)NCC(C)C)cc2)s1 [MLS000027478-01] | 0.9489 | 0.924 | 0.9443 | 0.979 |  |  |  |  |  |  |  |  |  |  |  |  | Burkin Assay in Myoblasts, signal relative to DMSO ([2]; 0.5 uM): 0.9552; Burkin Assay in Myoblasts, signal relative to DMSO ([2]; 1 uM): 0.9044; Burkin Assay in Myoblasts, signal relative to DMSO ([2]; 5 uM): 0.9721; Burkin Assay in Myoblasts, signal relative to DMSO ([2]; 10 uM): 0.9209; Burkin Assay in Myoblasts, signal relative to DMSO ([2]; 20 uM): 0.9145; Burkin Assay in Myoblasts, signal relative to DMSO ([2]; 40 uM): 0.816; Burkin Assay in Myotubes, α7 integrin LacZ reporter signal relative to DMSO ([1]; 0.5 uM): 1.0222; Burkin Assay in Myotubes, α7 integrin LacZ reporter signal relative to DMSO ([1]; 1 uM): 0.9043; Burkin Assay in Myotubes, α7 integrin LacZ reporter signal relative to DMSO ([1]; 5 uM): 0.984; Burkin Assay in Myotubes, α7 integrin LacZ reporter signal relative to DMSO ([1]; 10 uM): 0.9583; Burkin Assay in Myotubes, α7 integrin LacZ reporter signal relative to DMSO ([1]; 20 uM): 0.9854; Burkin Assay in Myotubes, α7 integrin LacZ reporter signal relative to DMSO ([1]; 40 uM): 0.9115
CCOCCCN1C(=O)CN(C2CCCCCC2)C(=O)C1c1ccc(OC)cc1 (stereo not drawn) [MLS000046123-01] | 0.9124 | 1.084 | 1.145 | 1.076 | 1.049 | 0.9808 | 0.9565 | 1.007 | 1.002 | 0.9894 | 0.9802 | 0.9389 | 0.8905 | 0.865 | 0.9268 | 0.9203 | 
Cc1nc2c([nH]1)OC(N)=C(C#N)C21CCN(Cc2ccccc2)CC1 [MLS000047918-01] |  |  |  |  |  |  |  |  |  |  |  |  |  |  |  |  | fold induction at 0.5 µM [2, 4]: 0.873; fold induction at 1 µM [2, 4]: 0.912; fold induction at 5 µM [2, 4]: 0.948; fold induction at 10 µM [2, 4]: 1; fold induction at 20 µM [2, 4]: 0.803; fold induction at 40 µM [2, 4]: 0.78; fold induction at 0.5 µM [1, 5]: 1.4; fold induction at 1 µM [1, 5]: 0.913; fold induction at 5 µM [1, 5]: 0.899; fold induction at 10 µM [1, 5]: 0.872; fold induction at 20 µM [1, 5]: 0.967; fold induction at 40 µM [1, 5]: 0.945; fold induction at 5 µM ([3]; Mus musculus, C2C12, read-out: CMV-LACZ in Myotubes, signal relative to DMSO, 5 uM): 0.937; fold induction at 10 µM ([3]; Mus musculus, C2C12, read-out: CMV-LACZ in Myotubes, signal relative to DMSO, 10 uM): 0.8; fold induction at 20 µM ([3]; Mus musculus, C2C12, read-out: CMV-LACZ in Myotubes, signal relative to DMSO, 20 uM): 1.04; fold induction at 40 µM ([3]; Mus musculus, C2C12, read-out: CMV-LACZ in Myotubes, signal relative to DMSO, 40 uM): 1.05
OC1(c2ccccc2)C/C(=N\n2cnnc2)C=C1c1ccccc1 (stereo not drawn) [MLS000081838-01] | 0.9175 | 0.8889 | 1.018 | 0.9697 | 1.0627 | 1.047 | 0.9611 | 0.9253 | 0.9822 | 0.9234 | 0.7425 | 1.018 | 0.9002 | 0.8704 | 1.225 | 1.036 | 
CC(=O)Nc1nonc1-c1nc2ccccc2n1CCC(C)C [MLS000085522-01] | 1.092 | 0.9804 | 0.7733 | 0.9509 |  |  |  |  |  |  |  |  |  |  |  |  | Burkin Assay in Myoblasts, signal relative to DMSO ([2]; 0.5 uM): 0.9927; Burkin Assay in Myoblasts, signal relative to DMSO ([2]; 1 uM): 0.872; Burkin Assay in Myoblasts, signal relative to DMSO ([2]; 5 uM): 1.118; Burkin Assay in Myoblasts, signal relative to DMSO ([2]; 10 uM): 0.9531; Burkin Assay in Myoblasts, signal relative to DMSO ([2]; 20 uM): 0.9728; Burkin Assay in Myoblasts, signal relative to DMSO ([2]; 40 uM): 0.7481; Burkin Assay in Myotubes, α7 integrin LacZ reporter signal relative to DMSO ([1]; 0.5 uM): 0.9622; Burkin Assay in Myotubes, α7 integrin LacZ reporter signal relative to DMSO ([1]; 1 uM): 0.8415; Burkin Assay in Myotubes, α7 integrin LacZ reporter signal relative to DMSO ([1]; 5 uM): 0.872; Burkin Assay in Myotubes, α7 integrin LacZ reporter signal relative to DMSO ([1]; 10 uM): 0.9249; Burkin Assay in Myotubes, α7 integrin LacZ reporter signal relative to DMSO ([1]; 20 uM): 1.029; Burkin Assay in Myotubes, α7 integrin LacZ reporter signal relative to DMSO ([1]; 40 uM): 0.556
Cc1cc(C)cc(-n2nnc(C(=O)NCc3ccccc3Cl)c2N)c1 [MLS000094770-01] | 0.8081 | 0.9406 | 0.9412 | 0.8421 | 1.021 | 0.9676 | 0.9491 | 0.9866 | 0.7999 | 0.6762 | 1.14 | 1 | 1.317 | 0.823 | 0.8175 | 0.7119 | 
Cc1cc(-c2ccccc2)n2nc(N)nc2n1 [MLS000122180-01] | 0.7773 | 0.8808 | 0.8136 | 1.007 | 0.8023 | 0.8424 | 0.9726 | 0.9665 | 1.004 | 0.9116 | 1.006 | 0.9341 | 1.027 | 0.7456 | 0.9557 | 0.9496 | 
O=C(c1cccs1)N(Cc1ccco1)c1nc(-c2ccc(F)cc2)cs1 [MLS000122749-01] | 1.022 | 1.063 | 0.808 | 1.0025 |  |  |  |  |  |  |  |  |  |  |  |  | Burkin Assay in Myoblasts, signal relative to DMSO ([2]; 0.5 uM): 1.113; Burkin Assay in Myoblasts, signal relative to DMSO ([2]; 1 uM): 1.04; Burkin Assay in Myoblasts, signal relative to DMSO ([2]; 5 uM): 1.026; Burkin Assay in Myoblasts, signal relative to DMSO ([2]; 10 uM): 1.116; Burkin Assay in Myoblasts, signal relative to DMSO ([2]; 20 uM): 1.185; Burkin Assay in Myoblasts, signal relative to DMSO ([2]; 40 uM): 0.948; Burkin Assay in Myotubes, α7 integrin LacZ reporter signal relative to DMSO ([1]; 0.5 uM): 1.042; Burkin Assay in Myotubes, α7 integrin LacZ reporter signal relative to DMSO ([1]; 1 uM): 0.9982; Burkin Assay in Myotubes, α7 integrin LacZ reporter signal relative to DMSO ([1]; 5 uM): 1.096; Burkin Assay in Myotubes, α7 integrin LacZ reporter signal relative to DMSO ([1]; 10 uM): 1.131; Burkin Assay in Myotubes, α7 integrin LacZ reporter signal relative to DMSO ([1]; 20 uM): 1.256; Burkin Assay in Myotubes, α7 integrin LacZ reporter signal relative to DMSO ([1]; 40 uM): 0.9306
CCCC(=O)[O-].[Na+] [sodium butyrate, reference compound] |  |  |  |  |  |  |  |  |  |  |  |  |  |  |  |  | β-galactosidase levels ([1]; treatments of ~1.5 mM, preliminary screens): increase β-galactosidase levels
